Measured values reported in patent publication US20030229087A1 (priority 2002, published 2003).

Key:
Assay type in all cases: in vivo
[1] = tested on: Leptosphaeria nodorum; test: Leptosphaeria nodorum test (wheat)/protective; details: protective, application rate 25 g/ha, evaluation 10 days after inoculation
Description: Leptosphaeria nodorum Test (Wheat)/Protective
To produce a suitable preparation of active compound, 1 part by weight of active compound or active compound combination is mixed with the stated amounts of solvents and emulsifier, and the concentrate is diluted with water to the desired concentration.
(§1) To test for protective activity, young plants are sprayed with the preparation of active compound at the stated application rate. After the spray coating has dried on, the plants are sprayed with a spore suspension of Leptosphaeria nodorum. The plants remain in an incubation cabin at 20° C. and 100% relative atmospheric humidity for 48 hours.
The plants are placed in a greenhouse at a temperature of approximately 15° C. and a relative atmospheric humidity of 80%.
Evaluation is carried out 10 days after the inoculation. 0% means an efficacy which corresponds to that of the control, whereas an efficacy of 100% means that no infection is observed.

[2] = tested on: Erysiphe graminis f.sp. tritici; test: Erysiphe test (wheat)/protective; details: protective, application rate 6.25 g/ha, evaluation 7 days after inoculation
Description: Erysiphe Test (Wheat)/Protective
(§2) To produce a suitable preparation of active compound, 1 part by weight of active compound or active compound combination is mixed with the stated amounts of solvent and emulsifier, and the concentrate is diluted with water to the desired concentration.
(§3) To test for protective activity, young plants are sprayed with the preparation of active compound at the stated application rate.
After the spray coating has dried on, the plants are dusted with spores of Erysiphe graminis f.sp. tritici.
(§4) The plants are placed in a greenhouse at a temperature of approximately 20° C. and a relative atmospheric humidity of approximately 80% to promote the development of mildew postules.
(§5) Evaluation is carried out 7 days after the inoculation. 0% means an efficacy which corresponds to that of the control, whereas an efficacy of 100% means that no infection is observed.

[3] = tested on: Sphaerotheca fuliginea; test: whole plant or invertebrate; details: Podosphaera fuliginea, in Cucumis sativus, 240 h, read-out: % Efficacy
[4] = tested on: Erysiphe graminis f.sp. hordei; test: Erysiphe test (barley)/protective; details: Blumeria graminis, 168 h, protective, application rate 12.5 g/ha, evaluation 7 days after inoculation, read-out: Efficacy in %
Description: Erysiphe Test (Barley)/Protective
as §2, §3
After the spray coating has dried on, the plants are dusted with spores of Erysiphe graminis f.sp. hordei.
as §4, §5

[5] = tested on: Phytophthora infestans; test: whole plant or invertebrate; details: Phytophthora infestans, in Solanum lycopersicum, 72 h, read-out: % Efficacy
[6] = tested on: Pyrenophora teres; test: Pyrenophora teres test (barley)/protective; details: protective, application rate 25 g/ha, evaluation 7 days after inoculation
Description: Pyrenophora teres Test (Barley)/Protective
as §2
as §1, with “conidia” for “spore”, “Pyrenophora teres.” for “Leptosphaeria nodorum.”
The plants are then placed in a greenhouse at a temperature of approximately 20° C. and a relative atmospheric humidity of approximately 80%.
as §5

Row | SMILES | Efficacy in % [1] [%] | Efficacy in % [2] [%] | pest or weed control at 0.5 g/ha [3] [%] | pest or weed control at 1 g/ha [3] [%] | pest or weed control at 12.5 g/ha [4] [%] | pest or weed control at 0.5 g/ha [5] [%] | pest or weed control at 1 g/ha [5] [%] | pest or weed control at 2 g/ha [5] [%] | Efficacy in % [6] [%]
1 | CNC(=O)/C(=N/OC)c1ccccc1Oc1ncnc(Oc2cccc(Cl)c2C)c1F [Compound of the formula (I), (2E/Z)-2-(2-{[6-(3-chloro-2-methylphenoxy)-5-fluoro-4-pyrimidinyl]oxy}phenyl)-2-(methoxyimino)-N-methylethanamide] | 60 | 0 | 30 | 69 | 80 | 32 | 60 | 72 | 60
2 | Fc1ccc(C2(Cn3cncn3)OC2c2ccccc2Cl)cc1 (centres unmarked) [epoxiconazole (XI) (10), epoxiconazole] | – | 70 | – | – | – | – | – | – | 60
